Assay results as given in article PMC7773212, “Dissecting the Mechanism of (R)-3-Hydroxybutyrate Dehydrogenase by Kinetic Isotope Effects, Protein Crystallography, and Computational Chemistry” (ACS Catalysis, 2020).

How the values were obtained:
[1] = target: (R)-3-hydroxybutyrate dehydrogenase from Psychrobacter arcticus (Psychrobacter arcticus); experiment: SEC; analytical gel filtration, Superdex 200 10/300 GL, room temperature, samples loaded at 1 mg/mL, 20 mM HEPES pH 8.0, MW standards
[2] = target: (R)-3-hydroxybutyrate dehydrogenase from Psychrobacter arcticus (Psychrobacter arcticus); experiment: crystal structure; ternary complexes with NAD+ and acetoacetate or 3-oxovalerate; tetramers formed with crystallographic symmetry; crystals grown at room temperature
AbHBDH [3] = target: T1, AbHBDH (Acinetobacter baumannii, UniProt A0A1E3M3N6); experiment: X-ray crystal structure, […] Å; type: binding
T1 construct: gene AUO97_16470; homotetramer; landmarks: Gln95, Ser143, Asn145, Gly149, Phe150, Gly152, Lys153, Tyr156, Val189, Gln197
T1 sequence (A0A1E3M3N6 1-261): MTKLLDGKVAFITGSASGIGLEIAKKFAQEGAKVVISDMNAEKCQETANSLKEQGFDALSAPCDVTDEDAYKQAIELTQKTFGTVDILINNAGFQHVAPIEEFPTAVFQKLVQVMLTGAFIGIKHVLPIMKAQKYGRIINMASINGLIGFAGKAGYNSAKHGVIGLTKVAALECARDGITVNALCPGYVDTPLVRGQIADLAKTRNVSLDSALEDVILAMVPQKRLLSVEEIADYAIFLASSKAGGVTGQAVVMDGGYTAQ

PaHBDH [4] = target: T2, PaHBDH (Psychrobacter arcticus, UniProt Q4FRT2); experiment: X-ray crystal structure, […] Å; type: binding; settings: ternary dead-end complex with NAD+
T2 construct: gene Psyc_1428; homotetramer; landmarks: Gln99, Ser148, His150, Lys158, Tyr161, Val194, Gln202

PaHBDH [5] = target: T2, PaHBDH; experiment: X-ray crystal structure, […] Å; type: binding
[6] = target: (R)-3-hydroxybutyrate dehydrogenase from Acinetobacter baumannii (Acinetobacter baumannii); experiment: SEC; analytical gel filtration, Superdex 200 10/300 GL, room temperature, samples loaded at 1 mg/mL, 20 mM HEPES pH 8.0, MW standards
[7] = target: (R)-3-hydroxybutyrate dehydrogenase from Acinetobacter baumannii (Acinetobacter baumannii); experiment: crystal structure; ternary complexes with NAD+ and acetoacetate or 3-oxovalerate; tetramers formed with crystallographic symmetry; crystals grown at room temperature
AbHBDH [8] = target: T1, AbHBDH; experiment: isothermal titration calorimetry; type: binding; settings: 100 mM HEPES, pH 7.0, 25 °C; single-site model
PaHBDH [9] = target: T2, PaHBDH; experiment: NADH fluorescence titration with enzyme; type: binding; settings: 100 mM HEPES, pH 7.0, 25 °C; 3 μM NADH
[10] = ternary dead-end complex with NAD+
[11] = ternary dead-end complex with acetoacetate (also with 3-oxovalerate)

T2 sequence (Q4FRT2 entry or part of it): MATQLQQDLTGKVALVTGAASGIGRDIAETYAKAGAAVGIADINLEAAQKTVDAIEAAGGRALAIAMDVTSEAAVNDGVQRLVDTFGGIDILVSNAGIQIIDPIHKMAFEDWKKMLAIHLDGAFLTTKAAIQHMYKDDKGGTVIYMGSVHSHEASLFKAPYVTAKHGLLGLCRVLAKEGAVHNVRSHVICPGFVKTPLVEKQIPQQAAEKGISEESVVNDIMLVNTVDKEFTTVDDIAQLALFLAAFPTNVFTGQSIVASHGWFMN

(R)-3-hydroxybutyrate dehydrogenase from Psychrobacter arcticus (enzyme)
stoichiometry N [1]: 4
stoichiometry N [2]: 4

CCC(=O)CC(=O)O [3-oxovalerate]
X-ray crystal structure, 1.9 Å (AbHBDH [3]; [10]): Fobs – Fcalc maps show clear density for NAD^+ and either acetoacetate or 3-oxovalerate
X-ray crystal structure, 1.84 Å (PaHBDH [4]): Fobs – Fcalc maps show clear density for NAD^+ and either acetoacetate or 3-oxovalerate

NC(=O)c1ccc[n+]([C@@H]2O[C@H](COP(=O)(O)OP(=O)(O)OC[C@H]3O[C@@H](n4cnc5c(N)ncnc54)[C@H](O)[C@@H]3O)[C@@H](O)[C@H]2O)c1 [NAD^+]
X-ray crystal structure, 1.3 Å (PaHBDH [5]; [11]): crystal structures of the ternary complexes PaHBDH:NAD^+:AcAc, AbHBDH:NAD^+:AcAc
X-ray crystal structure, 1.9 Å (AbHBDH [3]; [11]): crystal structures of the ternary complexes PaHBDH:NAD^+:AcAc, AbHBDH:NAD^+:AcAc

(R)-3-hydroxybutyrate dehydrogenase from Acinetobacter baumannii (enzyme)
stoichiometry N [6]: 4
stoichiometry N [7]: 4

CC(=O)CC(=O)O [acetoacetate]
X-ray crystal structure, 1.3 Å (PaHBDH [5]; ternary dead-end complex with NAD+, two conformations of acetoacetate): crystal structures of the ternary complexes PaHBDH:NAD^+:AcAc, AbHBDH:NAD^+:AcAc
X-ray crystal structure, 1.9 Å (AbHBDH [3]; [10]): crystal structures of the ternary complexes PaHBDH:NAD^+:AcAc, AbHBDH:NAD^+:AcAc

NC(=O)C1=CN([C@@H]2O[C@H](COP(=O)(O)OP(=O)(O)OC[C@H]3O[C@@H](n4cnc5c(N)ncnc54)[C@H](O)[C@@H]3O)[C@@H](O)[C@H]2O)C=CC1 [NADH]
Kd (AbHBDH [8]): 14 ± 8 µM
Kd (PaHBDH [9]): 7 ± 2 µM
